# Data as given in patent US11458141B2, “Aryl hydrocarbon receptor (AhR) agonists for the prevention and treatment of inflammatory disorders” (The Johns Hopkins University, priority 2017, dated 2022).
# “Also recorded” adds a separate entry of the source.
# Experiments:
# Format in all cases: in vivo, mouse
# [1] = test system: TLR4 signaling in the intestinal epithelium; test: LPS-induced TLR4 signaling and Cypla1 in the intestinal mucosa of mice
# Text: In seeking to investigate how AHR signaling attenuates NEC severity, whether AHR activation could limit the degree of TLR4 signaling in the gut was investigated. To do so, enteroids were derived from wild-type mice, which are intestinal cultures containing all cell lineages derived from intestinal crypts, as have been described.
# mice with NEC = test: Maternal I3C administration, Tnf alpha and Il6 mRNA in ileum of offspring with NEC; details: mums 25 mg/kg oral gavage E7 to P7, NEC groups
# Method: The pups whose mums received 25 mg/kg indole-3-carbinol (13C) by oral gavage starting from the embryonic age 7 (E7) of the fetus until the postnatal day 7 (P7) were included in maternal […]-rich group, while the pups whose mums received vehicle were included in maternal […]-free group. Necrotizing enterocolitis (NEC) was induced in 7-day-old mouse pups by gavage feeding and hypoxia exposure for 4 days. The ileum was harvested at the end of experiment and the mRNA expression of target genes was analyzed by qPCR. Referring now to FIG. 8, the mRNA expression of pro-inflammatory cytokine tumor necrosis factor alpha (Tnf alpha) was quantified in the ileum of experimental NEC models. Data are represented as mean±SEM; *p<0.05 between indicated groups; each dot represents an individual mouse. […] Referring now to FIG. 9, the mRNA expression of pro-inflammatory cytokine Interleukin-6 (Il6) was quantified in the ileum of experimental NEC models. Data are represented as mean±SEM; *p<0.05 between indicated groups; each dot represents an individual mouse.
# Tlr4 mRNA in the ileum = test: Ileal Tlr4 mRNA and microRNA expression in neonatal mice given I3C; details: 7-day-old mice, 25 mg/kg oral gavage, after 24 hours
# Method: Neonatal mice at the age of 7 days old were given AHR agonist […] (25 mg/kg) via oral gavage, and the ileal expression of Tlr4 mRNA and microRNAs, which have been reported to down-regulate Tlr4 transcription, were quantified after 24 hours. Referring now to FIG. 24, the mRNA expression of Tlr4 was quantified in the ileum of neonatal mice treated with AHR agonist […]. Data are represented as mean±SEM; *p<0.05 between indicated groups; each dot represents an individual mouse. […] Referring now to FIG. 25, the expression of let-71, miR-223, and miR-146b, which are microRNAs known to inhibit Tlr4 mRNA expression, was quantified in the ileum of neonatal mice treated with AHR agonist […]. Data are represented as mean±SEM; *p<0.05 between indicated groups; each dot represents an individual mouse.
compound,measurement,setting,value
"OCc1c[nH]c2ccccc12 [I3C, indole-3-carbinol]",enterocyte apoptosis after TLR4 activation,"[1]; intestinal mucosa, I3C, LPS",reversed the deleterious effects of TLR4 activation on enterocyte apoptosis; also recorded: reverses LPS induced apoptosis
same,mucosal healing / proliferation after TLR4 activation,"[1]; intestinal mucosa, I3C, LPS",improved mucosal healing; also recorded: reverses LPS induced apoptosis and impaired proliferation
same,TLR4-induced (LPS) cytokine induction in the intestinal mucosa,"[1]; wild type mice, I3C 50 mg/kg, LPS 5 mg/kg",reduced TLR4-induced (LPS 5 mg/kg) cytokine induction; also recorded: reduces TLR4 signaling; also recorded: reduces LPS-induced IL-6
same,Cypla1 expression,"[1]; wild-type mice, I3C 50 mg/kg",induced Cypla1 expression; also recorded: increases Cypla1
same,Il6 mRNA expression in offspring,mice with NEC,significantly reduced the Il6 expression
same,Tnf alpha mRNA expression in offspring,mice with NEC,significantly reduced the Tnf alpha expression
same,expression of let-7i in the ileum,Tlr4 mRNA in the ileum,significantly increased
same,expression of miR-146b in the ileum,Tlr4 mRNA in the ileum,significantly increased
same,expression of miR-223 in the ileum,Tlr4 mRNA in the ileum,significantly increased
same,mRNA expression of Tlr4 in the ileum,Tlr4 mRNA in the ileum,significantly reduced the expression of Tlr4 mRNA
